Article PMC6515479, “An Investigation on Glucuronidation Metabolite Identification, Isozyme Contribution, and Species Differences of GL-V9 In Vitro and In Vivo” (Molecules, 2019)

Legend:
Format in all cases: in vitro ADME
[1] = Enzyme kinetics of GL-V9 glucuronidation in mouse liver microsomes (MiceLMs); details: mouse, liver microsomes, pH 7.4, formation of 5-O-glucuronide GL-V9, protein 0.2 mg/mL, mean ± SD, n = 3
Description: (§1) The composition of the incubation system (200 μL) contained liver microsomes of different species (0.1 mg protein/mL), 5 mM saccharolactone (D-saccharic acid 1,4-lactone monohydrate), 10 mM MgCl2, alamethicin (50 μg/mg protein), Tris-HCl buffer (50 mM, pH 7.4) and GL-V9 (1 μM). After 5 min of preincubation at 37 °C, UDPGA (5 mM) was added to initiate the phase II reaction. Control incubation samples were performed without UDPGA or without substrates (GL-V9). The reaction was terminated by addition of ice-cold methanol (three volumes) after incubation for 1 h at 37 °C. Samples were vortexed, centrifuged at 21,500× g for 10 min and then stored at 4 °C until HPLC-UV-TripleTOF analysis. To confirm that these metabolites are conjugates resulting from glucuronidation reaction, enzymatic hydrolysis of samples was processed. β-glucuronidase (100 KU, Sigma) was added and the hydrolysis was performed overnight at 37 °C. The control samples were carried out without β-glucuronidase under the same condition.
(§2) Enzyme kinetics experiments were carried out in triplicate among five different species, including monkey, beagle dog, rat, mouse, and human. The reaction system and operations are as same as described in Section 4.3. The solutions of GL-V9 were selected over a range of concentrations (0.05, 0.2, 0.5, 1, 2, 5, 10, 20 μM). […]

[2] = system: mouse liver microsomes (MiceLMs); assay: as above; details: formation of 5-O-glucuronide GL-V9, protein 0.2 mg/mL, mean ± SD, n = 3
Description: as §1, §2

rUGT1A6 = target: T1, rUGT1A6 (Homo sapiens, UniProt P19224); assay: UGT phenotyping of GL-V9 glucuronidation, rUGT1A6; details: GL-V9 0.5, 1, 5 μM, 37 °C, 1 h
T1 construct: purchased Corning (Woburn, MA, USA)
T1 sequence (P19224 27-532): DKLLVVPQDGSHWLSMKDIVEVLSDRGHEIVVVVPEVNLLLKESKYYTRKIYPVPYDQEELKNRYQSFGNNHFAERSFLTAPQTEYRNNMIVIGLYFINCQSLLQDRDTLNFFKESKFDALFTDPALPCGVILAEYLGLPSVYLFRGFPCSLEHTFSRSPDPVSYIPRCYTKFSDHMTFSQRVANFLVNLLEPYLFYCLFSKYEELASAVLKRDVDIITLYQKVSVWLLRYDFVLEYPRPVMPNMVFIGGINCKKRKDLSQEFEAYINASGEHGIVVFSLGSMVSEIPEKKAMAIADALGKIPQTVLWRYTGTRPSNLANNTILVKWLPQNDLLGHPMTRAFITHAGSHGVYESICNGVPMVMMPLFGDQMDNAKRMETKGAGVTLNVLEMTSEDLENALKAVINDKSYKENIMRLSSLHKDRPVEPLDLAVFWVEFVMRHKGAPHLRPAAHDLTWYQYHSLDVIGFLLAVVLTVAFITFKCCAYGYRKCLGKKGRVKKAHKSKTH
Description: as §1
Twelve human recombinant UGT isoforms (rUGT1A1, rUGT1A3, rUGT1A4, rUGT1A6, rUGT1A7, rUGT1A8, rUGT1A9, rUGT1A10, rUGT2B4, rUGT2B7, rUGT2B15, and rUGT2B17) were employed to identify the main UGT enzyme(s) responsible for glucuronidation of GL-V9 under mixture conditions as described in Section 4.3. […]

[3] = system: beagle dog liver microsomes (DLMs); assay: Enzyme kinetics of GL-V9 glucuronidation in beagle dog liver microsomes (DLMs); details: formation of 5-O-glucuronide GL-V9, protein 0.1 mg/mL, mean ± SD, n = 3
Description: as §1, §2

[4] = as above; details: beagle, dog, liver microsomes, pH 7.4, formation of 5-O-glucuronide GL-V9, protein 0.1 mg/mL, mean ± SD, n = 3
Description: as §1, §2

[5] = Enzyme kinetics of GL-V9 glucuronidation in monkey liver microsomes (MLMs); details: monkey, liver microsomes, pH 7.4; formation of 5-O-glucuronide GL-V9; MLMs, protein 0.1 mg/mL; mean ± SD, n = 3
Description: as §1
(§3) Enzyme kinetics experiments were carried out in triplicate among five different species, including monkey, beagle dog, rat, mouse, and human. The reaction system and operations are as same as described in Section 4.3. The solutions of GL-V9 were selected over a range of concentrations (0.05, 0.2, 0.5, 1, 2, 5, 10, 20 μM). According to the different metabolic capacity, the protein concentration of liver microsomes of different species is different as shown in Table 1.
(§4) Rates of the glucuronidation of GL-V9 were described as amounts of glucuronides formed per minute per milligram (pmol/min/mg). The calculation model of kinetic parameters was selected by the profile of Eadie-Hofstee plots. It often includes three possibilities: (1) the Eadie-Hofstee plot was linear, the formation rates of glucuronides (V) at different substrate concentrations (C) were fit to the standard Michaelis-Menten calculation of GraphPad Prism (version 6.02, GraphPad Software Inc., Guildford, Surrey, UK); (2) the Eadie-Hofstee plot was atypical kinetic-autoactivation, the rates and concentration were fit with the allosteric sigmoidal function of GraphPad Prism; (3) the Eadie-Hofstee plot was atypical kinetic-biphasic, the rates and concentration were fit with the […] of GraphPad Prism.

[6] = system: monkey liver microsomes (MLMs); assay: as above
Description: as §1, §3, §4

Km at 1 h [1]: 20.1 ± 1.04 µM | Vmax [2]: 153.2 ± 10.44 pmol/min/mg | Metabolism rate (glucuronidation) (rUGT1A6): too low to be biologically relevant | Vmax [3]: 22.03 ± 0.42 pmol/min/mg | Km at 1 h [4]: 12.5 ± 1.43 µM | Km at 1 h [5]: 11.2 ± 0.47 µM | Clint in MLMs relative to DLMs ([6]; MLMs versus DLMs): approximately 9 fold | Glucuronidation rate in MLMs relative to DLMs ([6]; MLMs versus DLMs): > 8 fold | Vmax ([6]; formation of 5-O-glucuronide GL-V9, MLMs, protein 0.1 mg/mL, mean ± SD, n = 3): 182.5 ± 4.92 pmol/min/mg
Compound: COc1c(OCCCCN2CCCC2)cc(O)c2c(=O)cc(-c3ccccc3)oc12 [GL-V9]
